Measurements taken from patent US20250296959A1, “B7-H3 TARGETING PEPTIDES AND CONSTRUCTS THEREOF” (Mariana Oncology Inc., priority 2024, published 2025).
Like-named read-outs stand apart in the source and are kept apart here. Starred links: 1 amine or outer side, 2 acyl side, 3 side chain; linkers in the order of their positions; H or OH if unused. Positions of bridges follow the written chain, without caps; N, C: chain ends. Non-standard residues stand in square brackets, D forms with d. Residues, ends and D or L forms follow the SMILES beside them. Groups on a side chain read outwards from the residue. *: point of attachment. X4 = O=C(O)CN1CCN(CC(=O)O)CCN([C@H](CCC(=O)*)C(=O)O)CCN(CC(=O)O)CC1; Ala(piperidin-4-yl) = O=C([C@H](CC1CCN([*:3])CC1)N[*:1])[*:2]; DOTA = O=C(O)CN1CCN(CC(=O)O)CCN(CC(=O)*)CCN(CC(=O)O)CC1; Trp(5-F) = N[C@@H](Cc1c[nH]c2ccc(F)cc12)C(=O)O; X1 = C[C@@H](c1ccccc1)[C@H](N[*:1])C(=O)[*:2]; γGlu = O=C(O)[C@H](CCC(=O)[*:2])N[*:1]; Ala(4-THP) = N[C@@H](CC1CCOCC1)C(=O)O; Val(3-OH) = CC(C)(O)[C@H](N)C(=O)O; hCha = N[C@@H](CCC1CCCCC1)C(=O)O; Cha = N[C@@H](CC1CCCCC1)C(=O)O; PEG4 = NCCOCCOCCOCCOCCC(=O)O; Tle = CC(C)(C)[C@H](N)C(=O)O; hLeu = CC(C)CC[C@H](N)C(=O)O; Sar = CNCC(=O)O

Tests used:
Calu-6 cell line [1] = experiment: Net internalization of [177Lu]Lu-labeled peptide in Calu-6 cells; type: cell-based, Human; settings: 1 hour, 37° C., glycine pH 2.5 acid wash
Method: (§1) [^177Lu]LuCl3 was received from venders in HCl solution. For every mCi of [^177Lu]LuCl3 added to the reaction vial (1.5 mL Eppendorf vial), ammonium acetate buffer (0.2 M, pH 4.9, 100 μL, containing 1% w/v ascorbic acid and 6% v/v ethanol) and peptide conjugate (1 nmol) was added. The pH of the solution was determined to be approximately 5 by using pH strips. The reaction vial was incubated at 80° C., 700 RPM for 17-20 minutes. A sample from the reaction was analyzed by RP-HPLC using an Agilent Infinity II 1260 HPLC to determine reaction completion and radiochemical purity. HPLC conditions: Waters XBridge BEH C18 Column, 130 Å, 3.5 μm, 4.6 mm×250 mm; mobile phase: Solvent A=water (with 0.1% formic acid), solvent B=acetonitrile (with 0.1% formic acid). Gradients: 25-45% B in 10 minutes, 45-65% B in 12 minutes, 65-90% in 6 minutes at a flow rate of 0.5 mL/minute. Required amounts of the product were formulated in 1% PBSA for cell studies.
(§2) The study was conducted using Calu-6 cell line (Table 8)
(§3) Adherent cell studies: The cells were cultured in appropriate culture media (20 mL) in tissue culture treated T150 flasks at 37° C. and 5% CO2. Adherent cells were detached (60-70% confluent) using 5 mL Versene at 37° C. for 3 minutes. After confirming the viability using countess and count of detached cells using Trypan blue, the cells were centrifuged at 4° C. for 5 minutes (1,000 revolutions per minute). The cell pellet obtained was washed once with PBS and resuspended in 1% PBSA to obtain the desired cell concentration (5 million cells/mL).
Net internalization: The resuspended cells in 300 μl of 1% PBSA and counted in the gamma counter as “bound fraction” were collected in 1.5 mL Eppendorf tube and pelleted. The pelleted cells were incubated with 300 μl of 50 mM Glycine pH=2.5 for 3 minutes and then pelleted discarding the supernatant. This process was repeated one more time. The pelleted cells were washed with 300 μl of cold 1% PBSA and then resuspended in 300 μl 0.3 M NaOH. This was counted in the gamma counter as “internalized fraction”.
(§4) Calu-6 Cells are Human-Derived, Non-Engineered Lung Cancer Cell that Express B7-H3.

human 4lg B7-H3 = biological target: T1, human 4lg B7-H3 (Homo sapiens, UniProt Q5ZPR3); experiment: Affinity determination by surface plasmon resonance (SPR) to 4Ig B7-H3; settings: 4Ig B7-H3
T1 sequence (Q5ZPR3 29-534): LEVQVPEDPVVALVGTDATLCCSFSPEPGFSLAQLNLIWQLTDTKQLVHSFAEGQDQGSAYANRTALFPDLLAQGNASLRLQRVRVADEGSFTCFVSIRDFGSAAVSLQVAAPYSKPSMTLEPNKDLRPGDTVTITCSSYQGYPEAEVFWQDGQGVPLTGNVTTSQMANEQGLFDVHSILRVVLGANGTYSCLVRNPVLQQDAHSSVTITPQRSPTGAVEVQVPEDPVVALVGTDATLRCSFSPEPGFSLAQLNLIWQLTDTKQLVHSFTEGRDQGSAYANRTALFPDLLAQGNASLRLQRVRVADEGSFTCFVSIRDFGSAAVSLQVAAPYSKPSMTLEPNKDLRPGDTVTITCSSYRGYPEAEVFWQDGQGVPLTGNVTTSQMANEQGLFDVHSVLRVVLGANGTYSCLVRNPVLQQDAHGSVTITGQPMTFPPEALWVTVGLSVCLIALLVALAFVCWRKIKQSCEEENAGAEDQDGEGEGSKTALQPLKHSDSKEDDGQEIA

Calu-6 cell line [2] = experiment: Cell associated (bound) fraction of [177Lu]Lu-labeled peptide in Calu-6 cells; type: cell-based, Human; settings: 1 hour, 37° C.
Method: as §1, §2, §3
Cell associated fraction: Cells were incubated with 300 μL (0.8 μCi) of the incubation buffer (containing radiolabeled peptide [^177Lu]Lu-test peptide) for 1 hour at 37 C (Table 9). Post incubation, the cells were pelleted and washed 2 times using cold PBS+1% BSA. The supernatant and washes were combined and counted together as “unbound fraction” in a gamma counter. The cells were then resuspended in 300 μL of 1% PBS+1% BSA and counted in the gamma counter as cell associated fraction (or bound fraction).
as §4

[3] = SPR KD—37° C., 37° C. flow cell temperature
[4] = read-out: SPR KD—25° C., 25° C. flow cell temperature
[5] = read-out: SPR KD—37° C., 37° C. flow cell temperature

SMILES | % net internalization (Calu-6 cell line [1]) | Kd (human 4lg B7-H3; [3]) [nM] | % cell associated fraction (Calu-6 cell line [2]) | Kd (human 4lg B7-H3; [4]) [nM] | Kd (human 4lg B7-H3; [5]) [nM]
CC(=O)N[C@@H](CCC(C)C)C(=O)N[C@@H](Cc1ccc(O)cc1)C(=O)N[C@H]1CSSC[C@@H](C(=O)N[C@@H](Cc2c[nH]c3ccc(F)cc23)C(=O)N[C@H](C(=O)N[C@H](C(=O)N[C@H](CCCCNC(=O)CN2CCN(CC(=O)O)CCN(CC(=O)O)CCN(CC(=O)O)CC2)C(=O)O)C(C)(C)O)[C@@H](C)c2ccccc2)NC(=O)[C@H](Cc2ccc(O)cc2)NC(=O)[C@H](C(C)C)NC(=O)[C@H](CC(=O)O)NC(=O)[C@H](CC2CCOCC2)NC(=O)[C@H](CC2CCNCC2)NC(=O)CNC(=O)[C@H](C(C)(C)C)NC1=O [compound 433, Ac-hLeu-Y-C-Tbg-G-PipAla-ThpA-D-V-Y-C-5FW-[(2S, 3S)beta-Me-Phe]-hydroxyVal-dLys(DOTA)-COOH] (Ac-[hLeu]YC[Tle]G[Ala(piperidin-4-yl)][Ala(4-THP)]DVYC[Trp(5-F)][X1][Val(3-OH)][dK](DOTA)-OH; disulfide 3-11) | B (25<%≤50) | < 1 | C (%>50) | – | –
CC(=O)N[C@@H](CCC(C)C)C(=O)N[C@@H](Cc1ccc(O)cc1)C(=O)N[C@H]1CSSC[C@@H](C(=O)N[C@@H](Cc2c[nH]c3ccccc23)C(=O)N[C@@H](Cc2ccccc2)C(=O)N[C@H](C(=O)N[C@H](CCCCNC(=O)CN2CCN(CC(=O)O)CCN(CC(=O)O)CCN(CC(=O)O)CC2)C(N)=O)[C@@H](C)O)NC(=O)[C@H](Cc2ccc(O)cc2)NC(=O)[C@H](C(C)C)NC(=O)[C@H](CC(=O)O)NC(=O)[C@H](Cc2ccc(O)cc2)NC(=O)[C@H](CCCCN)NC(=O)CN(C)C(=O)[C@H](C(C)C)NC1=O [compound 74, Ac-hLeu-Y-C-V-Sar-K-Y-D-V-Y-C-W-F-Thr-dLys(DOTA)-CONH2] (Ac-[hLeu]YCV[Sar]KYDVYCWFT[dK](DOTA)-NH2; disulfide 3-11) | A (%≤25) | – | B (25<%≤50) | 1 to 10 | –
CC(=O)N[C@@H](CCC(C)C)C(=O)N[C@@H](Cc1ccc(O)cc1)C(=O)N[C@H]1CSSC[C@@H](C(=O)N[C@@H](Cc2c[nH]c3ccc(F)cc23)C(=O)N[C@@H](Cc2ccccc2)C(=O)N[C@H](C(=O)N[C@H](CCCCNC(=O)CC[C@H](NC(=O)CN2CCN(CC(=O)O)CCN(CC(=O)O)CCN(CC(=O)O)CC2)C(=O)O)C(=O)O)C(C)(C)O)NC(=O)[C@H](Cc2ccc(O)cc2)NC(=O)[C@H](C(C)C)NC(=O)[C@H](CC(=O)O)NC(=O)[C@H](CC2CCOCC2)NC(=O)[C@H](CC2CCNCC2)NC(=O)CNC(=O)[C@H](C(C)(C)C)NC1=O [compound 440, Ac-hLeu-Y-C-Tbg-G-PipAla-ThpA-D-V-Y-C-5FW-F-hydroxyVal-dLys(gGlu-DOTA)-COOH] (Ac-[hLeu]YC[Tle]G[Ala(piperidin-4-yl)][Ala(4-THP)]DVYC[Trp(5-F)]F[Val(3-OH)][dK]([γGlu-DOTA])-OH; disulfide 3-11) | A (%≤25) | – | B (25<%≤50) | – | < 1
CC(=O)N[C@@H](CCC(C)C)C(=O)N[C@@H](Cc1ccc(O)cc1)C(=O)N[C@H]1CSSC[C@@H](C(=O)N[C@@H](Cc2c[nH]c3ccc(F)cc23)C(=O)N[C@@H](Cc2ccccc2)C(=O)N[C@H](C(=O)N[C@H](CCCCNC(=O)CN2CCN(CC(=O)O)CCN(CC(=O)O)CCN(CC(=O)O)CC2)C(N)=O)C(C)(C)O)NC(=O)[C@H](Cc2ccc(O)cc2)NC(=O)[C@H](C(C)C)NC(=O)[C@H](CC(=O)O)NC(=O)[C@H](CC2CCCCC2)NC(=O)[C@H](CC2CCNCC2)NC(=O)CNC(=O)[C@H](C(C)C)NC1=O [compound 227, Ac-hLeu-Y-C-V-G-PipAla-CHA-D-V-Y-C-5FW-F-hydroxyVal-dLys(DOTA)-CONH2] (Ac-[hLeu]YCVG[Ala(piperidin-4-yl)][Cha]DVYC[Trp(5-F)]F[Val(3-OH)][dK](DOTA)-NH2; disulfide 3-11) | B (25<%≤50) | – | C (%>50) | < 1 | –
CC(=O)N[C@@H](CCC1CCCCC1)C(=O)N[C@@H](Cc1ccc(O)cc1)C(=O)N[C@H]1CSSC[C@@H](C(=O)N[C@@H](Cc2c[nH]c3ccc(F)cc23)C(=O)N[C@@H](Cc2ccccc2)C(=O)N[C@H](C(=O)N[C@H](CCCCNC(=O)CN2CCN(CC(=O)O)CCN(CC(=O)O)CCN(CC(=O)O)CC2)C(=O)O)C(C)(C)O)NC(=O)[C@H](Cc2ccc(O)cc2)NC(=O)[C@H](C(C)C)NC(=O)[C@H](CC(=O)O)NC(=O)[C@H](CC2CCOCC2)NC(=O)[C@H](CCCCN)NC(=O)CNC(=O)[C@H](C(C)(C)C)NC1=O [compound 368, Ac-hCha-Y-C-Tbg-G-K-ThpA-D-V-Y-C-5FW-F-hydroxyVal-dLys(DOTA)-COOH] (Ac-[hCha]YC[Tle]GK[Ala(4-THP)]DVYC[Trp(5-F)]F[Val(3-OH)][dK](DOTA)-OH; disulfide 3-11) | A (%≤25) | < 1 | B (25<%≤50) | – | –
CC(=O)N[C@@H](CCC(C)C)C(=O)N[C@@H](Cc1ccc(O)cc1)C(=O)N[C@H]1CSSC[C@@H](C(=O)N[C@@H](Cc2c[nH]c3ccc(F)cc23)C(=O)N[C@@H](Cc2ccccc2)C(=O)N[C@H](C(=O)N[C@H](C)C(=O)O)C(C)(C)O)NC(=O)[C@H](Cc2ccc(O)cc2)NC(=O)[C@H](C(C)C)NC(=O)[C@H](CC(=O)O)NC(=O)[C@H](CC2CCN(C(=O)CCOCCOCCOCCOCCNC(=O)CN3CCN(CC(=O)O)CCN(CC(=O)O)CCN(CC(=O)O)CC3)CC2)NC(=O)[C@H](CC2CCNCC2)NC(=O)CNC(=O)[C@H](C(C)(C)C)NC1=O [compound 455, Ac-hLeu-Y-C-Tbg-G-PipAla-Pip(PEG4-DOTA)Ala-D-V-Y-C-5FW-F-hydroxyVal-dAla-COOH] (Ac-[hLeu]YC[Tle]G[Ala(piperidin-4-yl)][Ala(piperidin-4-yl)]([PEG4-DOTA])DVYC[Trp(5-F)]F[Val(3-OH)][dA]-OH; disulfide 3-11) | B (25<%≤50) | – | C (%>50) | – | < 1
CC(=O)N[C@@H](CCC(C)C)C(=O)N[C@@H](Cc1ccc(O)cc1)C(=O)N[C@H]1CSSC[C@@H](C(=O)N[C@@H](Cc2c[nH]c3ccc(F)cc23)C(=O)N[C@@H](Cc2ccccc2)C(=O)N[C@H](C(=O)N[C@H](CCCCNC(=O)CC[C@H](C(=O)O)N2CCN(CC(=O)O)CCN(CC(=O)O)CCN(CC(=O)O)CC2)C(=O)O)C(C)(C)O)NC(=O)[C@H](Cc2ccc(O)cc2)NC(=O)[C@H](C(C)C)NC(=O)[C@H](CC(=O)O)NC(=O)[C@H](CC2CCOCC2)NC(=O)[C@H](CC2CCNCC2)NC(=O)CNC(=O)[C@H](C(C)(C)C)NC1=O [compound 438, Ac-hLeu-Y-C-Tbg-G-PipAla-ThpA-D-V-Y-C-5FW-F-hydroxyVal-dLys(R-DOTAGA)-COOH] (Ac-[hLeu]YC[Tle]G[Ala(piperidin-4-yl)][Ala(4-THP)]DVYC[Trp(5-F)]F[Val(3-OH)][dK](X4)-OH; disulfide 3-11) | A (%≤25) | – | B (25<%≤50) | – | < 1
